The target of series [1] is Histone deacetylase 4 (Homo sapiens, UniProt P56524). Briefly: Inhibition of human recombinant HDAC4.
The target in series [2] is Histone deacetylase 5 (Homo sapiens, UniProt Q9UQL6). As to the kind of experiment: Inhibition of human recombinant HDAC5.
For series [3], the target named is Histone deacetylase 9 (Homo sapiens, UniProt Q9UKV0). As to the kind of experiment: Inhibition of human recombinant HDAC9.
Series [4] deals with T1, Protein deacetylase HDAC6 (Homo sapiens, UniProt Q9UBN7).
T1 sequence (Q9UBN7 whole entry): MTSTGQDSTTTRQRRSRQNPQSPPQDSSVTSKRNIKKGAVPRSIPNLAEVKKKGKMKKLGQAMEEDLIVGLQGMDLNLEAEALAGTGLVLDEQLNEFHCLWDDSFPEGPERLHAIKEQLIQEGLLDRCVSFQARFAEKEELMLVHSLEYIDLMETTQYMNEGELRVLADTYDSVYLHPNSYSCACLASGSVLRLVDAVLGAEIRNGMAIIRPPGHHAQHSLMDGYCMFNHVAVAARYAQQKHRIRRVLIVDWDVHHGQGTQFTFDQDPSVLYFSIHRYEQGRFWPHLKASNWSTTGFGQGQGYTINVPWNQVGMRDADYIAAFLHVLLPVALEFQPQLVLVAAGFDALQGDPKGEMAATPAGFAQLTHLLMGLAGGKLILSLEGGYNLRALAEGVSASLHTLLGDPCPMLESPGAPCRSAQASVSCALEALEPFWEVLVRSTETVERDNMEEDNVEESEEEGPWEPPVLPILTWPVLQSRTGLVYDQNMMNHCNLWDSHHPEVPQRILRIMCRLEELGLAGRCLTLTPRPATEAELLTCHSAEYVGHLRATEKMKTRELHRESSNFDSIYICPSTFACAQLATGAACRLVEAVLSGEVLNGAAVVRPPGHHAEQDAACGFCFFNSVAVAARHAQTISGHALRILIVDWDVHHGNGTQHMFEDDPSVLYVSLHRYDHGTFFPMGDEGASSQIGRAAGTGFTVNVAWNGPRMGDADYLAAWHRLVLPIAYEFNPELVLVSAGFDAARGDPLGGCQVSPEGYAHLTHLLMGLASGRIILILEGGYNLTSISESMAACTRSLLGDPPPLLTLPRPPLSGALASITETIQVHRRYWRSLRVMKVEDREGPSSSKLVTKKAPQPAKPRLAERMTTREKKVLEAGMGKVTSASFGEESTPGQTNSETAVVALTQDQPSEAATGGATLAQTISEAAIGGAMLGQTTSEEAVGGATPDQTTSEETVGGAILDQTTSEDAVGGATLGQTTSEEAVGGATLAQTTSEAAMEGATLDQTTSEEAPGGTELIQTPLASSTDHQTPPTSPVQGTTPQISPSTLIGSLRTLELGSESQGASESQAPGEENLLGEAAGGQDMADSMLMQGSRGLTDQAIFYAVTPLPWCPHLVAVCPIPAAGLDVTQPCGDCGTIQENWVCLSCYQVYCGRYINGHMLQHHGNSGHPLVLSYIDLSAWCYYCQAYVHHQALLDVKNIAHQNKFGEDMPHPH
Briefly: Inhibition of human recombinant HDAC6.

Series [5] deals with T2, Histone deacetylase 8 (Homo sapiens, UniProt Q9BY41).
T2 sequence (Q9BY41 whole entry): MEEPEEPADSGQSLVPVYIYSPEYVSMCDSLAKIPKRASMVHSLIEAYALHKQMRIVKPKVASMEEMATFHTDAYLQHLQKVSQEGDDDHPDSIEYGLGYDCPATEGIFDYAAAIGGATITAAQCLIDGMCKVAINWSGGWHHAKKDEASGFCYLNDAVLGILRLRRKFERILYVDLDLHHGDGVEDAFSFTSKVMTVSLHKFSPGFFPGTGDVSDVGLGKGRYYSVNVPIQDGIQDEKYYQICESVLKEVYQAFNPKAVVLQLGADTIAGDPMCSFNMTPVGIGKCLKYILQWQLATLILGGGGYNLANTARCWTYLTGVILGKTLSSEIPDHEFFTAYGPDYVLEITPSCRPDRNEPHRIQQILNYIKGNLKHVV
As to the kind of experiment: Inhibition of human recombinant HDAC8.

Series [6] deals with T3, Polyamine deacetylase HDAC10 (Homo sapiens, UniProt Q969S8).
T3 sequence (Q969S8 whole entry): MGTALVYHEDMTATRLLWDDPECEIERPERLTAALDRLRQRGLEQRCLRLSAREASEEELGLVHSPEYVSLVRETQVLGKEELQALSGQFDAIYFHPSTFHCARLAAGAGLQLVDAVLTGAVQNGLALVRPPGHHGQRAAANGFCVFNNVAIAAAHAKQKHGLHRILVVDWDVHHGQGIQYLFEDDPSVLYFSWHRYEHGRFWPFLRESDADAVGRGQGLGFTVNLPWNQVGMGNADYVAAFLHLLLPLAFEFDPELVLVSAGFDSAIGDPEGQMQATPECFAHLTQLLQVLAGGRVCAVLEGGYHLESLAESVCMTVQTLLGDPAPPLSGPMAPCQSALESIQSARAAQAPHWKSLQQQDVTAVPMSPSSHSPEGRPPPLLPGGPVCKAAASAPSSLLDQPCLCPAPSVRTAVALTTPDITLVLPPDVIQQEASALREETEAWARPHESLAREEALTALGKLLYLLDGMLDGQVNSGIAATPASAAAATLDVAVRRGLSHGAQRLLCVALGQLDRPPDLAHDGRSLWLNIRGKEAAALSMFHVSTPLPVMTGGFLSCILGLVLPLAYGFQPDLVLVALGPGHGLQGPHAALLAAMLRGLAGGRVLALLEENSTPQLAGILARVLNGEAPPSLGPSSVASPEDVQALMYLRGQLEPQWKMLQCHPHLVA
Briefly: Inhibition of human recombinant HDAC10.

Series [7] deals with T4, Histone deacetylase 11 (Homo sapiens, UniProt Q96DB2).
T4 sequence (Q96DB2 whole entry): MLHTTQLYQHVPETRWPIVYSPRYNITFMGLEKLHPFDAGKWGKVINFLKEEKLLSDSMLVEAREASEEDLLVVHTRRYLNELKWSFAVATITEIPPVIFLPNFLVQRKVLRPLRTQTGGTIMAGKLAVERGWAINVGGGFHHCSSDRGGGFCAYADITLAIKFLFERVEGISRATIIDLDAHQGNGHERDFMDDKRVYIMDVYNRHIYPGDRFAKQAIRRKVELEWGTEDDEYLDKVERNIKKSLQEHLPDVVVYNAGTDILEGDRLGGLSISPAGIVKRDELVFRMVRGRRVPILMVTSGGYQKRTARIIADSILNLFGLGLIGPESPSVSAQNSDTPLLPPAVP
As to the kind of experiment: Inhibition of human recombinant HDAC11.

Series [8] has as its target T5, Histone deacetylase 1 (Homo sapiens, UniProt Q13547). Briefly: Inhibition of HDAC1 (unknown origin). The note with it: pooled result: one value given for 7 cell lines, strains, targets or settings.
The nature of series [9]: Metabolic stability in mouse liver microsomes assessed as half life. The format is ADME, Microsome. For orientation: Microsomes from liver hold many membrane-bound enzymes, among them those of drug oxidation.
A short description of series [10]: Stability in mouse plasma assessed as half life. The format is ADME, cell-free.
Series [11] has as its target T5, Histone deacetylase 1. As to the kind of experiment: Inhibition of human full-length recombinant HDAC1 incubated for 2 hrs by fluorescence based analysis.
Series [12] has as its target T1, Protein deacetylase HDAC6. Briefly: Inhibition of human full-length recombinant HDAC6 incubated for 2 hrs by fluorescence based analysis.
Series [13] concerns Toxoplasma gondii. Briefly: Antiparasitic activity against Toxoplasma gondii assessed as parasitic growth inhibition. The class given is functional, organism-based.
Series [14] addresses Histone deacetylase. The class given is cell-based, Homo sapiens. The conditions noted are these: hela.
The subject of series [15] is A2780. Briefly: Antiproliferative activity against human A2780 cells assessed as cell growth inhibition. The class given is functional, cell-based.
In series [16] the test system is HEK-293T. Briefly: Antiproliferative activity against HEK293T cells assessed as inhibition of cell growth by MTT assay. The conditions noted are these: Homo sapiens. The class given is functional, cell-based. (In general: Tetrazolium assays rely on reduction of a dye to a coloured formazan, in cell work by metabolically active cells.)
The test system of series [17] is MCF7. As to the kind of experiment: Antiproliferative activity against human MCF7 cells assessed as inhibition of cell growth by MTT assay. The format is functional, cell-based.
Series [18] has as its system HeLa. As to the kind of experiment: Antiproliferative activity against human HeLa cells assessed as inhibition of cell growth by MTT assay. The class given is functional, cell-based.
Series [19] has as its system K562. As to the kind of experiment: Antiproliferative activity against human K562 cells assessed as inhibition of cell growth by MTT assay. The class given is functional, cell-based.

Consider seven compounds from ChEMBL document CHEMBL5352506, “The Zinc-Binding Group Effect: Lessons from Non-Hydroxamic Acid Vorinostat Analogs” (J Med Chem, 2023).

T5 sequence (Q13547 whole entry): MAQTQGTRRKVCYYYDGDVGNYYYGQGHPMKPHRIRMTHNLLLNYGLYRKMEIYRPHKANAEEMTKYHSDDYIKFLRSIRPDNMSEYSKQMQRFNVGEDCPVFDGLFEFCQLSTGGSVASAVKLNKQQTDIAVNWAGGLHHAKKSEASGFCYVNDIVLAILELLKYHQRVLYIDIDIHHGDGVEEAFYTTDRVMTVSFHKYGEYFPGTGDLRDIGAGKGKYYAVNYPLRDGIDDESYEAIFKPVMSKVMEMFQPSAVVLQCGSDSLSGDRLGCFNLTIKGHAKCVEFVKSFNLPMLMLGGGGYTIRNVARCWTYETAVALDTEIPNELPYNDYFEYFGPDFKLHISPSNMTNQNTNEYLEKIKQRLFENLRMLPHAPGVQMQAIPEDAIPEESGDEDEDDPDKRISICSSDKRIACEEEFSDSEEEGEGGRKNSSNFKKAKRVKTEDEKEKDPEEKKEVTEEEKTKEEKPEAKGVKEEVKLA
Chain of Histone deacetylase 9 (Q9UKV0 whole entry): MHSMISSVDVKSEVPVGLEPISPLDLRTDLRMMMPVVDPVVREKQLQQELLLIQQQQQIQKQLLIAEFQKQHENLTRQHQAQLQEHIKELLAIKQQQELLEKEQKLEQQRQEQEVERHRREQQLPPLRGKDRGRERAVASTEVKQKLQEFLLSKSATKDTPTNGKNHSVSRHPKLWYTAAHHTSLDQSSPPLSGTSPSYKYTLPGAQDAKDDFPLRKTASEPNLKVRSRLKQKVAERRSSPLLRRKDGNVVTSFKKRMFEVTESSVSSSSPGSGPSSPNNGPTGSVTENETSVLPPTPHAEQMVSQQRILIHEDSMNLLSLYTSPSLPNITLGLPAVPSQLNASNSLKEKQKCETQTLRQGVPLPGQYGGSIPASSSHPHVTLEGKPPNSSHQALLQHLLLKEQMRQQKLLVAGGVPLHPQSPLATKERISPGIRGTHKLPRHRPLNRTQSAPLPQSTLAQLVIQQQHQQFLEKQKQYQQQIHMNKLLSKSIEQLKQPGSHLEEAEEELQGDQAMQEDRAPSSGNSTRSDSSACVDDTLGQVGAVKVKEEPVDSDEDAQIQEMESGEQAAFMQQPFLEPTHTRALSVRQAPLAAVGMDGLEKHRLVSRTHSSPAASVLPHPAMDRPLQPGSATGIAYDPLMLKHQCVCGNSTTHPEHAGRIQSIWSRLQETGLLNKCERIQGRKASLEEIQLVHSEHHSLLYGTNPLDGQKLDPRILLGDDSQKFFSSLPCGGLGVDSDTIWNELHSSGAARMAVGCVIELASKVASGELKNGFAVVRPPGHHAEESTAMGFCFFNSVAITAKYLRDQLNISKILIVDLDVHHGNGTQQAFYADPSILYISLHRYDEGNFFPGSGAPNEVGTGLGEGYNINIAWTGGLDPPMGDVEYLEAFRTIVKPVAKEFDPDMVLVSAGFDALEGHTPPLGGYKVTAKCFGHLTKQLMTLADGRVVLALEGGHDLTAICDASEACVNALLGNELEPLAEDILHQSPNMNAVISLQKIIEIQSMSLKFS
Chain of Histone deacetylase 5 (Q9UQL6 whole entry): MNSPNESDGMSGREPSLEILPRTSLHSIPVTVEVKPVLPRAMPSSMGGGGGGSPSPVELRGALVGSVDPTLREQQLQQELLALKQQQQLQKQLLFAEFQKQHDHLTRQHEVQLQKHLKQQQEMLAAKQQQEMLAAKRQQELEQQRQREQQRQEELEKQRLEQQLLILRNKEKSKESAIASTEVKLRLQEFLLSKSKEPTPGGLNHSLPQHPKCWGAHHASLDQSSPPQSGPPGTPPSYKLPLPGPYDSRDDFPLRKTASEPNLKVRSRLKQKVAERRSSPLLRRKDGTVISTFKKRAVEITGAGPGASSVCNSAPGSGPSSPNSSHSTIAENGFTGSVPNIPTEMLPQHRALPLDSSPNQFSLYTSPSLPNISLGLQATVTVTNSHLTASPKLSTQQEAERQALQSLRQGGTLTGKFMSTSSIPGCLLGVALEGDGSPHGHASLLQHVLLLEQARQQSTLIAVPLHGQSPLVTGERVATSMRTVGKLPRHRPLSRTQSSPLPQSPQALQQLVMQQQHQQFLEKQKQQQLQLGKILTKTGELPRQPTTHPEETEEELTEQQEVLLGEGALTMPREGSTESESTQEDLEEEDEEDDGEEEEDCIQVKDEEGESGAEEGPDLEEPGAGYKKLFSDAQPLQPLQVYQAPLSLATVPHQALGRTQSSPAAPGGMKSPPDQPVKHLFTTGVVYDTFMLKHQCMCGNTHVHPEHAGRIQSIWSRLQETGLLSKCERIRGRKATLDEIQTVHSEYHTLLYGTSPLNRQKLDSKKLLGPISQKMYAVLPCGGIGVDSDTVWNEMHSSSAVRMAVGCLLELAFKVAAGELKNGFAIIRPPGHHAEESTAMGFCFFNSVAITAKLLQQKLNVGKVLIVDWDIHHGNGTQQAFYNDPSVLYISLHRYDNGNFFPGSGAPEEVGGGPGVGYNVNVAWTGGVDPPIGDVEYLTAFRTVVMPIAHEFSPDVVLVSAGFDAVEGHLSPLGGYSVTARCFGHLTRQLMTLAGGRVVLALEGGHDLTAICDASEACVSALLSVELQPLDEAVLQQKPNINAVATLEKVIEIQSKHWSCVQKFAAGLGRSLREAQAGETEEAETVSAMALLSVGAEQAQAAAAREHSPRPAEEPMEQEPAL
Chain of Histone deacetylase 4 (P56524 whole entry): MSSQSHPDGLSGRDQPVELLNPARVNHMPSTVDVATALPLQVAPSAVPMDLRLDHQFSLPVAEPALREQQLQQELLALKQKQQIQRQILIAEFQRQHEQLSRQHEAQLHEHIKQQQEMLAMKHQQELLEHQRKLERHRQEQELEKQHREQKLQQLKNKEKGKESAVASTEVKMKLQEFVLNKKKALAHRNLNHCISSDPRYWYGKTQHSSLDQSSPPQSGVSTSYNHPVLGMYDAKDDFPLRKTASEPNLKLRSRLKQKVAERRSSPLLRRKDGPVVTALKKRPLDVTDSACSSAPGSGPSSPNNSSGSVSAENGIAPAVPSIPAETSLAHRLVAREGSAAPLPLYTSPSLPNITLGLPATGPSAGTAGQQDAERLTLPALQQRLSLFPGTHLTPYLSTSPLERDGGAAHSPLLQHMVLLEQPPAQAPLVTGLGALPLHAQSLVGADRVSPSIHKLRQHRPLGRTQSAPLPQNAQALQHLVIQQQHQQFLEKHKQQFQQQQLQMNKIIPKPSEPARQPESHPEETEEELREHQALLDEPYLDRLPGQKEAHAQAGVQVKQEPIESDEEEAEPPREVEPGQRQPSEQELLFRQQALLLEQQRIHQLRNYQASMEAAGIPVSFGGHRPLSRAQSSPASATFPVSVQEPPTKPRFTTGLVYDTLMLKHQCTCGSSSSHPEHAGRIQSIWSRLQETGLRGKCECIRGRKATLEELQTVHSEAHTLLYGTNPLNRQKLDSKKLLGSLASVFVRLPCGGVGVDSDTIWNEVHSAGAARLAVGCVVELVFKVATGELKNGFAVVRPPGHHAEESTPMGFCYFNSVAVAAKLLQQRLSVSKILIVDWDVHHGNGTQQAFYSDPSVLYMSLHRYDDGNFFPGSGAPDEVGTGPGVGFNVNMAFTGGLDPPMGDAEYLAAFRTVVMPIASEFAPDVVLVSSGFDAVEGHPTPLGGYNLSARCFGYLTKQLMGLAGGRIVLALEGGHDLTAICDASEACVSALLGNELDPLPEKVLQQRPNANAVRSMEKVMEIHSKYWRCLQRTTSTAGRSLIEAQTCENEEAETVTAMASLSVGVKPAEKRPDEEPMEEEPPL

As for `O=C(CCCCCCC(=O)C(F)(F)F)Nc1ccccc1`, the concentration for half-maximal inhibition (IC50) was determined as 0.04 µM in series [1]; 0.04 µM in series [2]; 5.9 µM in [3]; 2.2 µM in series [4]; 1.7 µM in series [5]; 19 µM in series [6]. Moreover, in series [7], the half-inhibitory concentration (IC50) was 100 µM.

In turn, `CNC(=O)/C(CCCCCCC(=O)Nc1ccccc1)=N\O` yielded an IC50 in series [8] of 22 µM.

`Nc1ccccc1NC(=O)CCCCCCC(=O)Nc1ccccc1`: the half-life in series [9] and in series [10] was 1.9 h throughout.

For `Cc1onc(-c2ccccc2)c1C(=O)NCCCCCCC(=O)NO`, the half-inhibitory concentration (IC50) in series [11] is 3 µM; in series [12], 0.18 µM.

As to `C=C1N[C@@](C)(CC)C(=O)N[C@@H](Cc2ccccc2)C(=O)N2C[C@@H](C)C[C@@H]2C(=O)N[C@H]1CCCCCC(=O)[C@@H](C)O`, the concentration for half-maximal inhibition (IC50) in [13] was found to be 0.0286 µM.

With `CP(=O)([O-])CCCCCCC(=O)Nc1ccccc1.[Li+]`, the figures for the IC50 in series [14], in [5] and in [15] were 8200 µM, 390 µM and 110 µM, respectively.

As for `O=C(CCCCCSc1nc[nH]n1)Nc1ccccc1`, the IC50 in [14] was 8.1 µM; in [16] it was 11.1 µM; in [17] it was 11.1 µM; in [18] it was 11.1 µM; in [19], 11.1 µM.

Broadly, the IC50 is the concentration at which inhibition is half-maximal. One may read the half-life as the time in which the quantity being followed falls by half.
